In ChEMBL document CHEMBL3526145, “Metabolism, excretion, and pharmacokinetics of ((3,3-difluoropyrrolidin-1-yl)((2S,4S)-4-(4-(pyrimidin-2-yl)piperazin-1-yl)pyrrolidin-2-yl)methanone, a dipeptidyl peptidase inhibitor, in rat, dog and human” (Drug Metab Dispos, 2012):

Experiments:
[1] = Retention time of the compound by HPLC method; type: physicochemical
Plasma [2] = assay: Drug level in beagle dog plasma treated with [14C]PF-00734200 at 5 mg/kg, po administered as single dose by LC-MS/MS method; type: ADME, organism-based, Canis lupus familiaris; parameters: dose 5 mg/kg, route oral; conditions: in vivo
[3] = Drug level in bile of bile duct-cannulated Sprague-Dawley rat treated with [14C]PF-00734200 at 5 mg/kg, po administered as single dose by LC-MS/MS method; type: ADME, organism-based; parameters: dose 5 mg/kg, route oral; conditions: in vivo
[4] = Drug level in urine of beagle dog treated with [14C]PF-00734200 at 5 mg/kg, po administered as single dose by LC-MS/MS method; type: ADME, organism-based, Canis lupus familiaris; parameters: dose 5 mg/kg, route oral; conditions: in vivo
Homo sapiens [5] = assay: Total drug level in human treated with [14C]PF-00734200 assessed as total radio activity at […], po administered as single dose […]; type: ADME, organism-based; parameters: route oral; conditions: in vivo
[6] = Drug level in urine of human treated with [14C]PF-00734200 at […], po administered as single dose by LC-MS/MS method; type: ADME, organism-based; parameters: route oral; conditions: in vivo
[7] = Drug level in urine of Sprague-Dawley rat treated with [14C]PF-00734200 at 5 mg/kg, po administered as single dose by LC-MS/MS method; type: ADME, organism-based; parameters: dose 5 mg/kg, route oral; conditions: in vivo
Canis familiaris = assay: Total drug level in beagle dog treated with [14C]PF-00734200 assessed as total radio activity at 5 mg/kg, po administered as single dose […]; type: ADME, organism-based, Canis lupus familiaris; parameters: dose 5 mg/kg, route oral; conditions: in vivo
[8] = Drug level in feces of human treated with [14C]PF-00734200 at […], po administered as single dose by LC-MS/MS method; type: ADME, organism-based; parameters: route oral; conditions: in vivo
Homo sapiens [9] = assay: AUC (0 to infinity) in human treated with [14C]PF-00734200 at […], po administered as single dose; type: ADME, organism-based, Plasma; parameters: route oral, time infinity; conditions: in vivo
[10] = Drug level in feces of beagle dog treated with [14C]PF-00734200 at 5 mg/kg, po administered as single dose by LC-MS/MS method; type: ADME, organism-based, Canis lupus familiaris; parameters: dose 5 mg/kg, route oral; conditions: in vivo
Cytochrome P450 2D6 = Cytochrome P450 2D6 (Homo sapiens, UniProt P10635); assay: Drug metabolism assessed as human CYP2D6-mediated metabolite (3,3-difluoropyrrolidin-1-yl){(2S,4S)-4-[4-(5-hydroxypyrimidin-2-yl)piperazin-1-yl]pyrrolidin-2-yl}methanone formation by LC-MS/MS method; type: ADME; conditions: recombinant enzyme
Cytochrome P450 2D6, sequence (P10635 whole entry): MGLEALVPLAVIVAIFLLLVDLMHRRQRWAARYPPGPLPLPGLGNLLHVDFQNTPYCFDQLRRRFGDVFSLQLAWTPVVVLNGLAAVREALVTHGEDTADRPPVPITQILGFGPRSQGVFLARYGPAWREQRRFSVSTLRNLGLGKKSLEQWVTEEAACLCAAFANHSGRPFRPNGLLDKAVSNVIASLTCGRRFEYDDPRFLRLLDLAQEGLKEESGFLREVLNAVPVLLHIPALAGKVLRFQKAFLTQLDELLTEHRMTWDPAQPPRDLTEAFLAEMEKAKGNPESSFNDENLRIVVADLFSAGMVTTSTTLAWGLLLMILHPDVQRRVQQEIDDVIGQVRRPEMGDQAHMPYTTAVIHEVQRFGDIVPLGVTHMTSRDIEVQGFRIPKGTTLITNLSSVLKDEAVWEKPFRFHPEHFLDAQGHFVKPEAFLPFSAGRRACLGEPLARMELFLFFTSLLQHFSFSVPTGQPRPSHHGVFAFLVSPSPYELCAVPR

Serum = assay: Drug level in human serum treated with [14C]PF-00734200 at […], po administered as single dose by LC-MS/MS method; type: ADME, organism-based; parameters: route oral; conditions: in vivo
Homo sapiens [11] = assay: Elimination half life in human treated with [14C]PF-00734200 at […], po administered as single dose; type: ADME, organism-based; parameters: route oral; conditions: in vivo
Homo sapiens [12] = assay: Tmax in human treated with [14C]PF-00734200 at […], po administered as single dose; type: ADME, organism-based; parameters: route oral; conditions: in vivo
Homo sapiens [13] = assay: AUC (0 to 168 hrs) in human treated with [14C]PF-00734200 at […], po administered as single dose; type: ADME, organism-based, Plasma; parameters: time < 168 hr, route oral; conditions: in vivo
Rattus norvegicus = assay: Total drug level in Sprague-Dawley rat treated with [14C]PF-00734200 assessed as total radio activity at 5 mg/kg, po administered as single dose […]; type: ADME, organism-based; parameters: dose 5 mg/kg, route oral; conditions: in vivo
Homo sapiens [14] = assay: Oral clearance in human treated with [14C]PF-00734200 at […], po administered as single dose; type: ADME, organism-based; parameters: route oral; conditions: in vivo
Cytochrome P450 3A4 = Cytochrome P450 3A4 (Homo sapiens, UniProt P08684); assay: Drug metabolism assessed as human CYP3A4-mediated metabolite (3,3-difluoropyrrolidin-1-yl){(2S,4S)-4-[4-(5-hydroxypyrimidin-2-yl)piperazin-1-yl]pyrrolidin-2-yl}methanone formation by LC-MS/MS method; type: ADME; conditions: recombinant enzyme
Cytochrome P450 3A4, sequence (P08684 whole entry): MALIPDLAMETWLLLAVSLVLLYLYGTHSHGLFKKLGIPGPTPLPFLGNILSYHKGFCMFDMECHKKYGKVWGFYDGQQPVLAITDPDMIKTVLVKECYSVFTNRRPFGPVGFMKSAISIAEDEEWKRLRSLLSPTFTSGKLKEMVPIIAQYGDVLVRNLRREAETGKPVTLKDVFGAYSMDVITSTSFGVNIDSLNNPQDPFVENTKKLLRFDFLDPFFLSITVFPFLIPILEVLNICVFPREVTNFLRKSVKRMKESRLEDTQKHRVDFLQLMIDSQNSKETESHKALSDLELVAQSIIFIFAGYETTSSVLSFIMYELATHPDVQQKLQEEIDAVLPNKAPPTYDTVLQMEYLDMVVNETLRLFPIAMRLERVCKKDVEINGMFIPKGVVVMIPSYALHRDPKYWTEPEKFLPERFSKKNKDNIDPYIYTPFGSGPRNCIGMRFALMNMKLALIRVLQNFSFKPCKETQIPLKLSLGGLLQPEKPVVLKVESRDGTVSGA

[15] = Drug level in feces of Sprague-Dawley rat treated with [14C]PF-00734200 at 5 mg/kg, po administered as single dose by LC-MS/MS method; type: ADME, organism-based; parameters: dose 5 mg/kg, route oral; conditions: in vivo
Plasma [16] = assay: Drug level in Sprague-Dawley rat plasma treated with [14C]PF-00734200 at 5 mg/kg, po administered as single dose by LC-MS/MS method; type: ADME, organism-based; parameters: dose 5 mg/kg, route oral; conditions: in vivo
Homo sapiens [17] = assay: Cmax in human treated with [14C]PF-00734200 at […], po administered as single dose; type: ADME, organism-based; parameters: route oral; conditions: in vivo

Retention_time [1] [min]	Drug uptake (Plasma [2]) [%]	Drug uptake [4] [%]	Drug uptake (Homo sapiens [5]) [%]	Drug uptake [6] [%]	Drug uptake [7] [%]	Drug uptake (Canis familiaris) [%]	Drug uptake (Rattus norvegicus) [%]	Drug uptake [15] [%]	Drug uptake (Plasma [16]) [%]	Structure (SMILES)	other results
–	80.1	25.6	48.9	48.5	11	27.4	12.1	1.1	79.9	O=C([C@@H]1C[C@H](N2CCN(c3ncccn3)CC2)CN1)N1CCC(F)(F)C1 [GOSOGLIPTIN]	Drug uptake [8]: 0.4%; AUC (Homo sapiens [9]): 2660 ng·h/mL; Drug uptake [10]: 1.8%; Drug metabolism (Cytochrome P450 2D6): metabolite_detected; Drug uptake (Serum): 94.5%; beta t1/2 (Homo sapiens [11]): 63.5 h; Tmax (Homo sapiens [12]): 1 h; AUC (Homo sapiens [13]): 2560 ng·h/mL; CL/F (Homo sapiens [14]): 125.3 mL/min; Drug metabolism (Cytochrome P450 3A4): metabolite_detected; Cmax (Homo sapiens [17]): 241.3 ng/mL
30.2	–	–	1	1	–	–	–	–	–	NC(=O)N1C[C@@H](N2CCN(c3ncccn3)CC2)C[C@H]1C(=O)N1CCC(F)(F)C1	–
20.1	–	–	0.1	0.1	–	–	0.1	0.1	–	N=C(N)N1CCN([C@H]2C[C@@H](C(=O)N3CCC(F)(F)C3)N(C=O)C2)CC1	–
3	0.8	1.2	3	–	3.1	5.8	20.9	17.8	2.6	N=C(N)N1CCN([C@@H]2CN[C@H](C(=O)N3CCC(F)(F)C3)C2)CC1	Drug uptake [8]: 3%; Drug uptake [10]: 4.6%; Drug uptake [3]: 7.3%

The remaining lines, values behind:

Structure (SMILES)	Retention_time [1] [min]	Drug uptake (Plasma [2]) [%]	Drug uptake [4] [%]	Drug uptake (Homo sapiens [5]) [%]	Drug uptake [6] [%]	Drug uptake [7] [%]	Drug uptake (Canis familiaris) [%]	Drug uptake (Rattus norvegicus) [%]	Drug uptake [15] [%]	Drug uptake (Plasma [16]) [%]	other results
O=C([C@@H]1C[C@H](N2CCN(c3ncc(OS(=O)(=O)O)cn3)CC2)CN1)N1CCC(F)(F)C1	24.5	1.8	2.6	–	–	–	–	–	–	–	Drug uptake [3]: 2.1%
O=C([C@@H]1C[C@H](N2CCN(c3ncccn3)CC2)CN1[C@@H]1O[C@H](CO)[C@@H](O)[C@H](O)[C@H]1O)N1CCC(F)(F)C1	29.2	–	–	0.9	0.9	–	–	–	–	–	–
c1cnc(N2CCNCC2)nc1 [2-PIPERAZIN-1-YL-PYRIMIDINE]	6.5	0.7	0.9	–	–	1.4	0.9	1.4	–	1.7	–
O=C(O)[C@H]1O[C@@H](OC(=O)N2C[C@@H](N3CCN(c4ncc(O)cn4)CC3)C[C@H]2C(=O)N2CCC(F)(F)C2)[C@H](O)[C@@H](O)[C@@H]1O	24.5	1.8	–	–	–	–	–	–	–	–	–
